Measurements reported in article PMC4503694, “The Human Autoantibody Response to Apolipoprotein A-I Is Focused on the C-Terminal Helix: A New Rationale for Diagnosis and Treatment of Cardiovascular Disease?” (PLoS ONE, 2015).

Each substance was assayed on anti-ApoA-I autoantibodies in pooled patient plasma (assay: Capture ELISA: immunoreactivity of pooled anti-ApoA-I-positive patient plasma to coated peptides). Settings: pooled plasma of anti-ApoA-I-positive patients; peptide as coating antigen; mean ± SD, n = 3 (Fig 1a).
Assay type: binding, human
Method: Anti-ApoA-I IgG autoantibodies in plasma were measured as described previously. Briefly, Maxisorp plates (Nunc) were coated with purified and delipidated human ApoA-I, diluted in carbonate buffer pH 9.7 (20 μg/ml; 50 μl/well), for 1 h at 37°C. The same procedure was used for the engineered peptides. After three washes with PBS/ 2% (w/v) BSA (100 μl/well), all wells were blocked for 1 h with PBS/ 2% (w/v) BSA at 37°C. Samples were diluted 1:50 in PBS/ 2% (w/v) BSA and incubated for 60 min at 37°C. Samples at the same dilution were also added to a non-coated well to assess individual non-specific binding. After six further washes, 50 μl/well of alkaline-phosphatase conjugated anti-(human IgG) (Sigma-Aldrich), diluted 1:1000 in PBS/ 2% (w/v) BSA, was incubated for 1 h at 37°C. After six more washes (150 μl/well) with PBS/ 2% (w/v) BSA, the phosphatase substrate p-nitrophenyl phosphate (50μl/well; 1mg/ml; Sigma—Aldrich) dissolved in 4.8% (w/v) diethanolamine (pH 9.8) was added. Each sample was tested in duplicate and A 405nm was determined after 20 min of incubation at 37°C (VERSAMax; MolecularDevices). The corresponding non-specific binding was subtracted from the mean absorbance for each sample. As in previous studies, positive immunoreactivity of human samples to ApoA-I was prospectively defined by an index >37%. This value was also used to define positive immunoreactivity to mimetic peptides, as defined upon receiver operating characteristic (ROC) curve analyses, and shown to provide an identical prevalence of positive immunoreactivity levels 11% […] to native ApoA-1 and 11% (14/132) to F3L1 peptide (data not shown). Repeatability and reproducibility were determined at two levels. At a high level (A 405nm = 1.2, i.e. twice the cut-off value), the intra- and inter-assay coefficients of variation were 10% (n = 10) and 17% (n = 10) respectively. At the cut-off level, the intra- and inter-assay coefficients of variation were 16% (n = 10) and 12% (n = 8) respectively.
In order to characterize the anti-ApoA-I autoantibody response, we chemically synthesized a panel of peptides corresponding to the different alpha-helical regions in the protein (Table 1). Each of the two longest helical regions, C and D, were synthesized as two separate peptides (C1, C2, D1, D2) whose sequences are located on either side of centrally located proline residues (Pro^121 for Region C, Pro^165 for Region D (Table 1)). The synthetic peptides were then used as coating antigens in a capture ELISA experiment to compare their immunoreactivity against pooled plasma from a subset of patients from our acute chest pain cohort that had previously shown to be positive for anti-ApoA-I autoantibodies (Fig 1a).
Fig 1 The anti-ApoA-I autoantibody response is strongly biased towards the C-terminal alpha-helical region. ELISA experiments were carried out using a set of ApoA-I-derived peptides (Table 1). a. Capture ELISA assay to determine the immunoreactivity of plasma pooled from patients known to be positive for anti-ApoA-I autoantibodies against the set of peptides. Specific ELISA signals were calculated as [signal in well]-[mean background signal (uncoated well)]. Results are expressed as mean ± SD (n = 3) b and c. Competition ELISA to determine the capacity of the set of peptides to block binding of anti-ApoA-I antibodies from either pooled patient plasma (b) or goat polyclonal IgG (c) to immobilized ApoA-I. Plasma or antibody was preincubated (2 h, room temperature) with peptides at the indicated concentrations prior to addition to assay wells. Percent maximal ELISA signals were calculated as 100 × ([signal in well]-[mean background signal (uncoated well)])/([mean maximal signal (no peptide)]-[mean background signal]). Results are expressed as mean ± SD (n = 3).

Substance	plasma immunoreactivity (specific ELISA signal) to coated peptide
A: ApoA-I-derived peptide, residues 10–39 (RVKDLATVYVDVLKDSGRDYVSQFEGSALG; UniProt P02647 34-63, looked up, fragment)	low signals
B: ApoA-I-derived peptide, residues 50–84 (WDSVTSTFSKLREQLGPVTQEFWDNLEKETEGLRQ; UniProt P02647 74-108, looked up, fragment)	intermediate signals
C1: ApoA-I-derived peptide, residues 97–120 (VQPYLDDFQKKWQEEMELYRQKVE; UniProt P02647 121-144, looked up, fragment) [Peptide C1]	low signals
C2: ApoA-I-derived peptide, residues 122–142 (LRAELQEGARQKLHELQEKLS; UniProt P02647 146-166, looked up, fragment) [Peptide C2]	intermediate signals
E: ApoA-I-derived peptide, residues 190–213 (AEYHAKATEHLSTLSEKAKPALED; UniProt P02647 214-237, looked up, fragment)	low signals
LGEEMRDRARAHVDALRTHLAPYSDEL [Peptide D1, ApoA-I-derived peptide, residues 143–164]	low signals
YSDELRQRLAARLEALKENGGA [Peptide D2, ApoA-I-derived peptide, residues 166–187]	low signals
